# Reference: US20190110476A1, “NOVEL ISOTHIAZOLAMIDES, PROCESSES FOR THEIR PREPARATION AND THEIR USE AS FUNGICIDES” (priority 2014, published 2019)
# Marks after values point to notes of the source that are not given here.
# Experiment: Measurement of LogP values by HPLC on reversed phase columns (EEC directive 79/831 Annex V.A8)
# Format: physicochemical
# Conditions: not given
# Outline: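 Following EEC directive 79/831 Annex V.A8, lipophilicity was derived from retention on reversed-phase HPLC columns. Separate values are given per diastereoisomer, and UV lambda-max (200–400 nm) was read at the peak signals.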
SMILES,LogP,LogP [a],LogP [b]
Nc1nsc(C(=O)NCC2CCOCC2)c1Cl [I-012],0.90[a],,
O=C(O)c1snc(N(Cc2ccccc2)Cc2ccccc2)c1-c1ccc(F)cc1 [E-VIII-010],,4.49^[a],
CC(C)OC(=O)c1snc(N)c1Cl [E-VII-005],,2.17,2.16
Nc1nsc(C(=O)NCCc2ccc(F)cc2)c1Cl [I-966],2.13[a],,
O=C(NCc1ccccc1F)c1snc(Cl)c1Cl [E-II-008],,3.23^[a],
COc1ccc(CNc2nsc(C(=O)NCc3cccc(OC(F)(F)F)c3)c2Cl)cc1 [I-1233],4.13[a],,
CCC(C)CNC(=O)c1cc(N)ns1 (stereo not shown) [I-984],1.44[a],,
CC(=O)N(C(C)=O)c1nsc(C(=O)NCc2ccc(Cl)cc2)c1Cl [I-571],2.99[a],,
O=C(c1cc(N(Cc2ccccc2)Cc2ccccc2)ns1)N(Cc1ccc(Cl)cc1Cl)C1CC1 [I-940],6.30[a],,
COc1ccc(CNc2nsc(C(=O)NC(C)(C)c3nc(C)cs3)c2Cl)cc1 [I-1267],3.63[a],,
CCS(C)=Nc1nsc(C(=O)NCC2CCCCC2)c1Cl (stereo not shown) [II-091],,1.94^[a],
Nc1cc(C(=O)NCc2ccc(Cl)cc2)sn1 [I-028],1.75[a],,
O=C(NCc1ccc(F)cc1F)c1snc(N=S2CCCC2)c1F [II-059],,1.57^[a],
Nc1nsc(C(=O)NCc2ccc(F)c(Oc3ccccc3)c2)c1Cl [I-237],2.90[a],,
O=C(NCCc1ccccc1)c1snc(N=C(c2ccccc2)c2ccccc2)c1Cl [II-095],,4.69^[a],
C#Cc1c(N)nsc1C(=O)NCC1CCCCC1F (stereo not shown) [I-1359],2.05[a],,
COc1ccc(CNc2nsc(C(=O)N(Cc3c(C)cc(C)cc3C)C3CC3)c2Cl)cc1 [I-870],4.94[a],,
CC(c1cccc(C(F)(F)F)c1)N(C(=O)c1snc(N)c1Cl)C1CC1 (stereo not shown) [I-956],3.29[a],,
C#CC1(NC(=O)c2snc(NCc3ccc(OC)cc3)c2Cl)CCCCC1 [I-1209],3.99[a],,
CC(C)(C)c1ccc2c(c1)CC(NC(=O)c1snc(N)c1Cl)CC2 (stereo not shown) [I-1534],3.94[a],,
Nc1nsc(C(=O)NCc2cccc(I)c2)c1Cl [I-716],2.51[a],,
Nc1cc(C(=O)N(Cc2cc(Cl)cc(C(F)(F)F)c2)C2CC2)sn1 [I-970],3.11[a],,
CCC1(C)CC(NC(=O)c2snc(N)c2Cl)CC(C)(C)C1 (stereo not shown) [I-1535],4.01[a],,
CCOC(=O)c1cccc(CNC(=O)c2snc(N)c2Cl)c1 [I-1307],2.03[a],,

SMILES,LogP,LogP [a],LogP [b]
COc1ccc(CNc2nsc(C(=O)NCc3ccc(Cl)c(C(F)(F)F)c3)c2Cl)cc1 [I-1249],4.34[a],,
COc1ccc(CNc2nsc(C(=O)NCCCn3ccnc3C)c2Cl)cc1 [I-1263],1.44[a],,
COc1ccc(CNc2nsc(C(=O)NC(C)c3ccccc3F)c2Cl)cc1 (stereo not shown) [I-1212],3.79[a],,
CS(Cc1ccccc1Cl)=Nc1nsc(C(=O)NCC2CCCCC2)c1Cl (stereo not shown) [II-085],,3.61^[a],
Nc1nsc(C(=O)NCc2c(F)cccc2F)c1Cl [I-128],1.81[a],,
Nc1nsc(C(=O)NCC2CC=CCC2)c1Cl (stereo not shown) [I-085],2.14[a],,
COc1ccc(CNc2nsc(C(=O)NCC3(C)CCCO3)c2Cl)cc1 (stereo not shown) [I-1236],3.06[a],,
Nc1nsc(C(=O)NCC2CCC(C(F)(F)F)CC2)c1Cl (stereo not shown) [I-141],2.71[a],,
O=C(NCC1CCCO1)c1snc(Cl)c1Cl (stereo not shown) [E-II-006],,2.20^[a],
Cc1ccc(F)c(CN(C(=O)c2cc(N)ns2)C2CC2)c1 [I-995],2.44[a],,
CCC(NC(=O)c1cc(N)ns1)C1CCCCC1 (stereo not shown) [I-1407],2.30[b],,
O=C(NCCc1ncc(C(F)(F)F)cc1Cl)c1snc(N(Cc2ccccc2)Cc2ccccc2)c1Br [I-950],5.97[a],,
O=C(c1cc(N(Cc2ccccc2)Cc2ccccc2)ns1)N(Cc1cc(Cl)cc(C(F)(F)F)c1)C1CC1 [I-943],6.16[a],,
COc1ccc(CNc2nsc(C(=O)N3CCCc4cc(Cl)ccc43)c2Cl)cc1 [II-066],,4.37^[a],
COc1ccc(CNc2nsc(C(=O)NCCc3ccccc3F)c2Cl)cc1 [I-963],3.74[a],,
Nc1cc(C(=O)NCc2ccc(F)cc2)sn1 [I-029],1.27[a],,
COc1ccc(CNc2nsc(C(=O)NCCc3ccc(Cl)cc3)c2Cl)cc1 [I-962],4.08[a],,
C[C@H](NC(=O)c1snc(NC(=O)C(F)F)c1Cl)C1CCCCC1 [I-522],3.06[a],,
C=CCNc1nsc(C(=O)NCc2ccccc2F)c1Cl [I-071],2.89[a],,
Cc1ccc(F)c(CN(C(=O)c2cc(NCc3ccccc3)ns2)C2CC2)c1 [I-996],4.01[a],,
CCC1(C)CC(NC(=O)c2snc(NCc3ccc(OC)cc3)c2Cl)CC(C)(C)C1 (stereo not shown) [I-1254],5.72[a],,
Cc1ccc(S(C)=Nc2nsc(C(=O)NCc3ccc(F)cc3F)c2F)cc1 (stereo not shown) [II-058],,2.74^[a],
Cc1cc(F)ccc1CNC(=O)c1snc(N)c1Cl [I-784],2.09[a],,
COc1ccc(CNc2nsc(C(=O)OC(C)(C)C)c2Cl)cc1 [E-VII-002],,4.74^[a],

SMILES,LogP,LogP [a],LogP [b]
Nc1nsc(C(=O)NCc2cccc(F)c2)c1Cl [I-026],1.84[a],,
COc1ccc(CNc2nsc(C(=O)NCc3cc(Cl)ccc3Cl)c2Cl)cc1 [I-393],4.34[a],,
CC(C)CN(C(=O)c1snc(N)c1Cl)C1CC1 [I-902],2.25[a],,
Nc1nsc(C(=O)NCc2cc(Cl)cc(Cl)c2)c1Cl [I-027],2.63[a],,
COc1ccc(CNc2nsc(C(=O)NC(C)(C)c3cccc(C(F)(F)F)c3)c2Cl)cc1 [I-1232],4.44[a],,
Nc1nsc(C(=O)Nc2cccc3ccccc23)c1Cl [I-927],2.39[a],,
COc1ccc(CNc2nsc(C(=O)NCc3ccc(C#N)cc3)c2Cl)cc1 [I-1555],3.23[a],,
Nc1nsc(C(=O)NCC2CCCC2)c1Cl [I-073],2.15[a],,
CON(CC1CCCCC1)C(=O)c1snc(N)c1Cl [I-543],3.04[a],,
CCc1ccccc1CN(C(=O)c1snc(NCc2ccc(OC)cc2)c1Cl)C1CC1 [I-890],4.74[a],,
CCCC(c1ccccc1)N(C(=O)c1snc(N)c1Cl)C1CC1 (stereo not shown) [I-908],3.48[a],,
Cc1c(N)nsc1C(=O)NCc1ccc(F)cc1 [I-050],1.52[a],,
Nc1nsc(C(=O)NCC2CCCCC2(F)F)c1Cl (stereo not shown) [I-1294],2.07[a],,
Nc1nsc(C(=O)NCc2ccc(Cl)cc2)c1C1CC1 [I-358],2.21[a],,
Cc1nn(C)cc1CNC(=O)c1snc(N)c1Cl [I-034],0.76[a],,
CCOc1c(N)nsc1C(=O)NCc1ccccc1F [I-730],1.93[a],,
COc1cc(F)ccc1CNC(=O)c1snc(NC(=O)C(F)(F)F)c1Cl [I-819],2.72[a],,
COc1ccc(CNc2nsc(C(=O)N3CCc4c(Cl)ccc(Cl)c4C3)c2Cl)cc1 [II-068],,4.66,4.55
COc1ccc(CNc2nsc(C(=O)N(Cc3c(C)cccc3C)C3CC3)c2Cl)cc1 [I-891],4.82[a],,
Nc1nsc(C(=O)NCC2CCCC(Cl)C2)c1Cl (stereo not shown) [I-1580],2.23[a],,
COc1ccc(CNc2nsc(C(=O)NC(c3cncnc3)C(C)C)c2Cl)cc1 (stereo not shown) [I-1251],2.73[a],,
COC(=O)CC(NC(=O)c1snc(Cl)c1Cl)C1CCCCC1 (stereo not shown) [E-II-030],,4.03,3.95
COc1ccc(CNc2nsc(C(=O)N3CCCC3)c2Cl)cc1 [II-102],,2.72,2.66
C#CCNc1nsc(C(=O)NCc2ccc(Cl)cc2)c1Cl [I-581],2.97[a],,

SMILES,LogP,LogP [a],LogP [b]
O=C(NCc1cccc(F)c1)c1cc(N(Cc2ccccc2)Cc2ccccc2)ns1 [I-310],4.40[a],,
Nc1nsc(C(=O)NCC2CCCCC2Cl)c1F (stereo not shown) [I-1536],2.16[a],,
COc1ccc(CNC(=O)c2snc(N)c2Cl)c(F)c1 [I-126],1.88[a],,
Nc1nsc(C(=O)Nc2ccc(F)cc2)c1Cl [I-857],2.04[a],,
Cc1cccc(C)c1CN(C(=O)c1snc(N)c1Cl)C1CC1 [I-154],3.02[a],,
CCOC(=O)c1snc(N(Cc2ccccc2)Cc2ccccc2)c1-c1ccc(F)cc1 [E-VII-031],,6.11^[a],
O=C(Nc1ccc(Cl)cc1Cl)c1snc(N(Cc2ccccc2)Cc2ccccc2)c1Br [I-960],7.15[a],,
Nc1nsc(C(=O)NCc2ccc(F)cc2)c1Cl [I-025],1.83[a],,
COC(=O)c1snc(N)c1Cl [E-VII-001],,1.42^[a],
CCOc1c(N)nsc1C(=O)NCc1ccc(Cl)cc1 [I-731],2.26[a],,
O=C(NC1CCCC2CCCCC21)c1snc(NCc2ccccc2)c1NCc1ccccc1 (stereo not shown) [I-047],5.65[a],,
CC(NC(=O)c1snc(N)c1Cl)C1CCCCC1 (stereo not shown) [I-1569],2.84[a],,
COc1ccc(CNc2nsc(C(=O)NCc3ccc(OC)c(F)c3)c2Cl)cc1 [I-224],3.44[a],,
C[C@H](NC(=O)c1snc(N)c1C1CC1)C1CCCCC1 [I-271],2.68[a],,
CCC(c1cc(Cl)cc(Cl)c1)N(C(=O)c1snc(NCc2ccc(OC)cc2)c1Cl)C1CC1 (stereo not shown) [I-936],5.81[a],,
COc1cc(F)ccc1CNC(=O)c1snc(NC(=O)C(F)F)c1Cl [I-820],2.23[a],,
CC1(C)CC1N(Cc1ccc(Cl)cc1Cl)C(=O)c1cc(N(Cc2ccccc2)Cc2ccccc2)ns1 (stereo not shown) [I-942],6.79[a],,
Nc1nsc(C(=O)N(Cc2ccccc2)C2CC2)c1Cl [I-183],2.41[a],,
CCCS(CC)=Nc1nsc(C(=O)NCC2CCCCC2)c1F (stereo not shown) [II-093],,2.07^[a],
COc1ccc(CNc2nsc(C(=O)N3CCc4ccccc4C3)c2Cl)cc1 [II-064],,3.68^[a],
COc1ccc(CN(Cc2ccccc2)c2nscc2Cl)cc1 [Z-A-007],,5.03^[a],
Cc1cccc(NC(=O)c2snc(N)c2Cl)c1 [I-915],2.28[a],,
COc1ccc(CNc2nsc(C(=O)NCc3cccs3)c2Cl)cc1 [I-1241],3.31[a],,

# Same assay, conditions: HPLC LC-UV, acidic range, 0.1% formic acid in water and acetonitrile as eluent
row,SMILES,chromatographic logP
1,"c1ccc(CN(Cc2ccccc2)c2ccsn2)cc1 [Z-A-001, N,N-dibenzyl-1,2-thiazol-3-amine]",4.13
